Measurements reported in US9814758B2, “Inhibitors of apoptosis and uses thereof” (CENTRE NATIONAL DE LA RECHERCHE SCIENTIFIQUE-CNRS, priority 2010, dated 2017).
Non-standard residues stand in square brackets, D forms with d. Residues, ends and D or L forms follow the SMILES beside them. No end group written: not given here. Ahx = NCCCCCC(=O)O

Test system: primary cardiomyocytes
Assay: STS-induced DNA fragmentation (Cell Death detection ELISA PLUS) in primary cardiomyocytes
Assay type: cell-based, mouse
Settings: for reduction of DNA fragmentation: peptide given together with staurosporine, 1 μM, related to STS-treated cells (=100%), FIG. 5B
Protocol: FIG. 5: In vitro evaluation of the anti-apoptotic activity of CPPs and CPP-conjugates. Workflow and quantitation of DNA fragmentation in (A) C2C12 cells, (B) primary cardiomyocytes, (C) H9c2 cells and (D) NG108-15 cells. Data were normalized to 100% STS. Data shown are the means±SEM, with n≧5. Cells were seeded in 24-well plates and grown overnight. The next day, the cells were incubated with STS alone or with STS+1 μM peptide (in OPTI-MEM) (OPTI-MEM® is a modification of Eagle's Minimum Essential Media, buffered with HEPES and sodium bicarbonate, and supplemented with hypoxanthine, thymidine, sodium pyruvate, L-glutamine, trace elements, and growth factors) (STS concentration and incubation time for each cells are given in the figure). Thereafter, solutions were removed, replaced by complete medium and further incubated for 40 h. Following the regeneration phase, the cells were lyzed and DNA fragmentation was detected according to manufacturer's instructions (Cell Death detection ELISA^PLUS kit—Roche Diagnostics).
FIG. 6: Anti-apoptotic activity of variants of the Tat-DAXXp sequence on primary cardiomyocytes. As described in the caption of FIG. 5, the different analogues of the DAXXp sequence (see Table 2) were assessed for anti-apoptotic properties against STS (Cell Death detection ELISA^PLUS kit—Roche Diagnostics) (A-B). None of the analogues were able to protect the primary cardiomyocytes—a fact which confirms that the 16mer DAXXp has the optimal length and sequence for highest cardioprotective effect.
FIG. 7: Comparison of the murine/rat DAXXp with the human DAXXp sequence in terms of anti-apoptotic activity on C2C12 cells, primary cardiomyocytes, and H9c2. The murine DAXXp sequence conjugated to Tat (Tat-mDAXXp—SEQ ID NO: 61) which is identical to the rat DAXXp sequence (see FIG. 1B), was compared to the human construct (Tat-DAXXp) in terms of anti-apoptotic properties against STS (Cell Death detection ELISA^PLUS kit—Roche Diagnostics). The C2C12 cells and the primary cardiomyocytes used were from mice and the H9c2 cells from rat.
FIG. 9: Comparison of FADDp constructs with Tat-DAXXp in terms of anti-apoptotic activity in primary cardiomyocytes and in H9c2 cells. Quantification of DNA normalized to 100% STS. Data shown are the means±SEM, with n≧5. Cells were seeded in 24-well plates and grown overnight. The next day, the cells were incubated with STS alone or with STS+1 μM peptide (in OPTI-MEM®) (OPTI-MEM® is a modification of Eagle's Minimum Essential Media, buffered with HEPES and sodium bicarbonate, and supplemented with hypoxanthine, thymidine, sodium pyruvate, L-glutamine, trace elements, and growth factors) (STS concentration is given in the figure and incubation time is given in FIG. 5). Thereafter, solutions were removed, replaced by complete medium and further incubated for 40 hours. Following the regeneration phase, the cells were lyzed and DNA fragmentation was detected according to manufacturer's instructions (Cell Death detection ELISA^PLUS kit—Roche Diagnostics).
FIG. 10: Comparison of Tat-DAXXp and Tat-FADDp15 alone and in combination in primary cardiomyocytes (A) and in H9c2 cells (B).
Thereafter, the capacity of these peptides to inhibit apoptosis induced by staurosporine was evaluated. Apoptosis was determined using the Cell Death detection ELISA^PLUS kit (Roche) measuring the DNA fragmentation.
In most publications, anti-apoptotic peptides currently available in the art are administrated 3-4 hours prior to apoptosis induction, which is poorly relevant to a clinical application. For that reason, the protocol used in the present study included administration of the peptides together with the staurosporine. […] This was not observed with CPP alone or with the Tat-scrDAXXp or Tat-ncDAXXp negative controls. […] To better compare the results, the DNA fragmentation (described by the enrichment factor) is related to the staurosporine-treated cells (=100%).

Row | Compound | reduction of DNA fragmentation | ability to decrease cell apoptosis / protect the cells (against STS)
1 | CC[C@H](C)[C@H](NC(=O)[C@H](Cc1c[nH]cn1)NC(=O)[C@@H](NC(=O)[C@H](CCCNC(=N)N)NC(=O)CCCCCNC(=O)[C@H](CCCNC(=N)N)NC(=O)[C@H](CCCNC(=N)N)NC(=O)CCCCCNC(=O)[C@H](CCCNC(=N)N)NC(=O)[C@H](CCCNC(=N)N)NC(=O)CCCCCNC(=O)[C@@H](N)CCCNC(=N)N)[C@@H](C)CC)C(=O)N[C@@H](CC(C)C)C(=O)N[C@@H](Cc1ccccc1)C(=O)N[C@@H](CCC(N)=O)C(=O)N[C@@H](CC(N)=O)C(=O)N[C@H](CCCNC(=N)N)C(=O)N[C@@H](CCCNC(=N)N)C(=O)N[C@@H](CCSC)C(=O)N[C@@H](CCCCN)C(=O)N[C@@H](Cc1c[nH]c2ccccc12)C(=O)N[C@@H](Cc1c[nH]cn1)C(=O)N[C@@H](CCCCN)C(=O)N[C@@H](CCCCN)C(=O)N[C@@H](CCCCN)C(=O)N[C@@H](CO)C(=O)N[C@@H](CCCNC(=N)N)C(=O)N[C@@H](CCCCN)C(=O)N[C@@H](CCC(=O)O)C(=O)N[C@@H](CCCCN)C(=O)N[C@@H](CCCCN)C(=O)N[C@@H](CCC(N)=O)C(=O)N[C@H](C(=O)NCC(=O)N[C@@H](CO)C(=O)NCC(=O)N1CCC[C@H]1C(=O)N[C@@H](CC(C)C)C(=O)NCC(N)=O)[C@@H](C)O [Pip2b-DAXXp, (RXR)3-IHILFQNrRMKWHK-KKSRKEKKQTGSGPLG-NH2] (H-R[Ahx]RR[Ahx]RR[Ahx]RIHILFQN[dR]RMKWHKKKSRKEKKQTGSGPLG-NH2; N-terminus assumed) | 55% | 
2 | GRKKRRQRRRPPQKKSRKEKKQTGSGPLG-NH2 [Tat-DAXXp, GRKKRRQRRRPPQ-KKSRKEKKQTGSGPLG-NH2] | 44% | 
3 | KKSRKEKKQTGSGPLG-NH2 [DAXXp, KKSRKEKKQTGSGPLG-NH2] |  | capable of decreasing cell apoptosis
